Data reported in PubChem BioAssay (NCI).
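Assay format: 96-well plates, 48-hour exposure. The concentration for 50% growth inhibition is given as GI50. At the TGI there is no net growth.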

Columns and labels:
Assay in all cases: NCI-60 cell line screen, 48 h
MCF7 breast = system: MCF7 breast
HS 578T breast = system: HS 578T breast
XF 498 CNS = system: XF 498 CNS
DMS 273 small cell lung = system: DMS 273 small cell lung
DLD-1 colon = system: DLD-1 colon
RXF-631 renal = system: RXF-631 renal
SNB-78 CNS = system: SNB-78 CNS
MDA-N = system: MDA-N

O=C1c2cc3c(cc2-c2c1c1cc(Cl)c(Cl)cc1c(=O)n2CCCn1ccnc1)OCO3
GI50 (MCF7 breast): < 0.01 µM | TGI (MCF7 breast): 12.3 µM | GI50 (HS 578T breast): 17.1 µM | TGI (HS 578T breast): > 100 µM

COc1ccc(N(C)c2nc(C)nc3ccccc23)cc1
GI50 (MCF7 breast): < 0.01 µM | TGI (MCF7 breast): > 100 µM | GI50 (HS 578T breast): < 0.01 µM | TGI (HS 578T breast): > 100 µM

NNC(=O)/C(=C/c1cccc([N+](=O)[O-])c1)NC(=O)c1ccccc1
TGI (XF 498 CNS): > 100 µM | TGI (DMS 273 small cell lung): > 100 µM | TGI (DLD-1 colon): > 100 µM | TGI (RXF-631 renal): > 100 µM | TGI (SNB-78 CNS): > 100 µM

O/N=C1/C(=C/c2ccc(F)cc2)CCCC1C(NO)c1ccc(F)cc1 (stereo not drawn)
TGI (XF 498 CNS): > 100 µM | TGI (DMS 273 small cell lung): > 100 µM | TGI (DLD-1 colon): > 100 µM | TGI (RXF-631 renal): > 100 µM | TGI (SNB-78 CNS): > 100 µM

COc1ccccc1C(=O)/C=C/c1cc2cccc(OC)c2[nH]c1=O
GI50 (MCF7 breast): 0.0358 µM | TGI (MCF7 breast): 4.12 µM | GI50 (HS 578T breast): 0.0163 µM | TGI (HS 578T breast): 10.8 µM

C[C@@H](c1ccc2nccn2c1)n1nnc2ncc(-c3cnn(C)c3)nc21
GI50 (MCF7 breast): > 100 µM | TGI (MCF7 breast): > 100 µM | GI50 (HS 578T breast): > 100 µM | TGI (HS 578T breast): > 100 µM

CCCCCCC(=O)C/C(CCC(=O)N(Cc1ccccc1)Cc1ccccc1)=N\Nc1ccc([N+](=O)[O-])cc1[N+](=O)[O-]
TGI (DMS 273 small cell lung): > 100 µM | TGI (DLD-1 colon): > 100 µM | TGI (SNB-78 CNS): > 100 µM

COc1cc(C2C(Cl)C(=O)N2n2cnc3ccccc3c2=O)cc(OC)c1OC (stereo not drawn)
TGI (XF 498 CNS): > 100 µM | TGI (DMS 273 small cell lung): > 100 µM | TGI (DLD-1 colon): > 100 µM | TGI (SNB-78 CNS): > 100 µM

CCOP(=O)(OCC)C1C(=O)O[C@H]2CCCC[C@@H]12 (stereo partly drawn)
TGI (XF 498 CNS): > 100 µM | TGI (DMS 273 small cell lung): > 100 µM | TGI (DLD-1 colon): > 100 µM | TGI (SNB-78 CNS): > 100 µM

CCCCN(CCCC)C(=O)C(=O)CC(=O)c1ccc(Br)cc1
TGI (XF 498 CNS): > 100 µM | TGI (DMS 273 small cell lung): > 100 µM | TGI (DLD-1 colon): > 100 µM | TGI (SNB-78 CNS): > 100 µM

Cc1ccc(S(=O)(=O)NC(CCC(=O)Nc2ccc(Cl)cc2)C(=O)Nc2ccc(Cl)cc2)cc1 (stereo not drawn)
GI50 (MCF7 breast): 0.287 µM | TGI (MCF7 breast): 6.51 µM | GI50 (HS 578T breast): 1.32 µM | TGI (HS 578T breast): 7.5 µM

CC1=C(C(=O)Nc2ccccc2)C(c2ccc3c(c2)OCO3)C(C(=O)Nc2ccccc2)=C(C)N1
TGI (XF 498 CNS): 85.4 µM | TGI (DMS 273 small cell lung): 86.5 µM | TGI (DLD-1 colon): > 100 µM | TGI (RXF-631 renal): > 100 µM

O=S(=O)(c1ccc(NC(=S)N/N=C/c2ccccc2O)cc1)N1CCCCC1
TGI (HS 578T breast): 40.5 µM

COc1cc2cc(Oc3ccc(NC(=O)Nc4cccc(C(F)(F)F)c4)cc3)c(C)nc2cc1OCCN1CCCCC1
GI50 (MCF7 breast): 1.63 µM | TGI (MCF7 breast): 3.33 µM

CC12OC(C(=O)C13CC3)C1C(=O)c3ccccc3C(=O)C12 (stereo not drawn)
GI50 (MCF7 breast): 21.2 µM | TGI (MCF7 breast): 78.6 µM | GI50 (HS 578T breast): 22.6 µM | TGI (HS 578T breast): 63.9 µM

O=C(Nc1ccncc1)C(=O)c1cn(S(=O)(=O)c2ccc(Br)cc2)c2ccccc12
GI50 (HS 578T breast): > 100 µM | TGI (HS 578T breast): > 100 µM

CC1=COC(=O)c2ccccc2N1
TGI (DMS 273 small cell lung): > 100 µM | TGI (DLD-1 colon): > 100 µM | TGI (SNB-78 CNS): > 100 µM

COc1cc2c3c(n(C)c(=O)c2cc1OC)-c1cc2c(cc1/C3=C\CCCCN)OCO2
GI50 (MCF7 breast): 3.46 µM | TGI (MCF7 breast): 12.7 µM

N#C/C(=C\c1c(-c2ccccc2)[nH]c2ccccc12)C(=O)c1ccc(Cl)cc1
GI50 (MCF7 breast): 0.753 µM | TGI (MCF7 breast): 14.5 µM | GI50 (HS 578T breast): 1.56 µM | TGI (HS 578T breast): 9.27 µM

Cc1cc2c(C)c3cc(C)c(N)cc3nc2cc1N
GI50 (MCF7 breast): 0.342 µM | TGI (MCF7 breast): 4.38 µM | GI50 (HS 578T breast): 1.64 µM | TGI (HS 578T breast): 7.95 µM

O/N=C1\CCc2cc(-c3nc(C4CCNCC4)[nH]c3-c3ccncc3)ccc21
GI50 (MCF7 breast): > 25 µM | TGI (MCF7 breast): > 25 µM | GI50 (HS 578T breast): > 25 µM | TGI (HS 578T breast): > 25 µM

CCOC(=O)Cc1c(Cc2[nH]c(C(=O)OCc3ccccc3)c(CC(=O)OCC)c2CC(=O)OCC)[nH]c(C(=O)OCc2ccccc2)c1CC(=O)OCC
TGI (SNB-78 CNS): > 100 µM

O=C1C2=C(c3ccccc31)C(c1ccc(Cl)cc1)N1C(=O)CCSC1=N2 (stereo not drawn)
TGI (XF 498 CNS): > 100 µM | TGI (DMS 273 small cell lung): > 100 µM | TGI (DLD-1 colon): > 100 µM | TGI (RXF-631 renal): > 100 µM

Cc1c(NC(=O)C(=O)N=NC(=O)c2ccncc2)c(O)c2ccccc2c1O
TGI (DMS 273 small cell lung): 23.2 µM | TGI (DLD-1 colon): 31.6 µM | TGI (RXF-631 renal): > 100 µM | TGI (SNB-78 CNS): 39.7 µM

O=C(Cc1ccccc1)NN1C(=O)C(Cl)C1c1cccc(O)c1 (stereo not drawn)
TGI (XF 498 CNS): 35.4 µM | TGI (DMS 273 small cell lung): 37.9 µM | TGI (DLD-1 colon): 31.1 µM | TGI (SNB-78 CNS): 73.6 µM

O=C(Nc1n[nH]c2nc(-c3ccco3)c(Br)cc12)C1CC1
GI50 (MCF7 breast): > 7.12 µM | TGI (MCF7 breast): > 25 µM | GI50 (HS 578T breast): > 25 µM | TGI (HS 578T breast): > 25 µM

Cc1ccc(S(=O)(=O)N/N=C/C(Br)=C(/Br)C(=O)O)cc1
TGI (MDA-N): 18.8 µM | TGI (MCF7 breast): 51 µM | TGI (HS 578T breast): 45.2 µM

CC(Cl)(/C=C/Cl)C(Cl)/C=C/C(Cl)(CCl)CBr (stereo not drawn)
TGI (DMS 273 small cell lung): 17.1 µM | TGI (DLD-1 colon): 12.5 µM | TGI (RXF-631 renal): 4.05 µM | TGI (SNB-78 CNS): 4.95 µM

Cc1cc(Br)cc(C)c1NC(=O)C(=O)CC(=O)c1sc(-n2nc(-c3ccccc3)cc2-c2ccccc2)nc1C
TGI (DMS 273 small cell lung): > 100 µM | TGI (DLD-1 colon): > 100 µM | TGI (RXF-631 renal): > 100 µM | TGI (SNB-78 CNS): > 100 µM

O=C1C2CC(Cl)C(SSC3CC4C(=O)N(SC(Cl)(Cl)C(Cl)Cl)C(=O)C4CC3Cl)CC2C(=O)N1SC(Cl)(Cl)C(Cl)Cl (stereo not drawn)
TGI (MDA-N): 6.71 µM | TGI (MCF7 breast): 7.67 µM | TGI (HS 578T breast): > 22.8 µM

COc1ccc(/C=C2/CCCC/C2=N/O)cc1
TGI (DMS 273 small cell lung): > 100 µM | TGI (DLD-1 colon): > 100 µM | TGI (RXF-631 renal): > 100 µM | TGI (SNB-78 CNS): > 100 µM

Cc1ccc2c(c1)NC(c1ccc(C(=O)O)cc1)c1cccn1-2 (stereo not drawn)
TGI (MDA-N): > 100 µM | TGI (MCF7 breast): > 100 µM

COC(=O)Nc1nc2ccc(C(=O)c3ccc[nH]3)cc2[nH]1
TGI (MDA-N): 0.419 µM | TGI (MCF7 breast): > 100 µM | TGI (HS 578T breast): > 100 µM

Cc1ccc(S(=O)(=O)N2CCCSCCSCCCSCC2)cc1
TGI (MCF7 breast): > 100 µM

Cn1nc(-c2ccccc2NC(=O)C(F)(F)F)c(=O)n(C)c1=S
TGI (XF 498 CNS): 36.9 µM | TGI (DMS 273 small cell lung): > 100 µM | TGI (DLD-1 colon): > 100 µM

CCOC(=O)/C(C1=N[C@H](C(=O)OCC)CS1)=C(\C)O
TGI (XF 498 CNS): > 100 µM | TGI (DLD-1 colon): > 100 µM | TGI (RXF-631 renal): > 100 µM | TGI (SNB-78 CNS): > 100 µM

COc1cc(O)c(C(=O)/C=C/c2ccccc2)c(OC)c1
TGI (MDA-N): 14.7 µM | TGI (MCF7 breast): 24.2 µM | TGI (HS 578T breast): 18.2 µM

COc1ccc(-c2oc3cc(O)c(OC)c(O)c3c(=O)c2OC2OC(CO)C(O)C(O)C2O)cc1 (stereo not drawn)
TGI (DMS 273 small cell lung): > 100 µM | TGI (DLD-1 colon): > 100 µM | TGI (SNB-78 CNS): > 100 µM

CCCCCCCCCCCCCCCCCCNC(=O)[C@H]1CSC(c2ccc(OC)c(F)c2)N1 (stereo partly drawn)
GI50 (MCF7 breast): 0.386 µM | TGI (MCF7 breast): 1.4 µM | GI50 (HS 578T breast): 4.29 µM | TGI (HS 578T breast): 20.3 µM
